# Measured values reported in ChEMBL document CHEMBL3046607, “Synthesis and Herbicidal Activity of New 1-Alkyl-3-aryloxypyrazole-4-carboxamide Derivatives” (J Pestic Sci, 2004).
# Calls of active or inactive are those of the source. The rule behind the calls is not given here.
# Legend:
# Elatine triandra [1] = assay: Post-emergence herbicidal activity against Elatine triandra assessed as bleaching of stem/leaf parts; assay type: functional, organism-based; also: test concentration or dose not given here
# Ammannia multiflora [2] = assay: Post-emergence herbicidal activity against Ammannia multiflora assessed as bleaching of stem/leaf parts; assay type: functional, organism-based
# Rotala indica [3] = assay: Post-emergence herbicidal activity against Rotala indica assessed as bleaching of stem/leaf parts; assay type: functional, organism-based
# Lindernia procumbens [4] = assay: Post-emergence herbicidal activity against Lindernia procumbens assessed as bleaching of stem/leaf parts; assay type: functional, organism-based; also: test concentration or dose not given here
# [5] = test system: Schoenoplectiella juncoides; assay: Post-emergence herbicidal activity against Schoenoplectiella juncoides assessed as bleaching of stem/leaf parts; assay type: functional, organism-based; also: test concentration or dose not given here
# Elatine triandra [6] = assay: Pre-emergence herbicidal activity against Elatine triandra at 100 g a.i/ha measured after 14 days; assay type: functional, organism-based
# Rotala indica [7] = assay: Pre-emergence herbicidal activity against Rotala indica at 100 g a.i/ha measured after 14 days; assay type: functional, organism-based
# Oryza sativa [8] = assay: Phytotoxicity against Oryza sativa cv. Koshihikari (rice) at 100 g a.i/ha measured after 14 days; assay type: organism-based; conditions: in vivo, 336 h
# Ammannia multiflora [9] = assay: Pre-emergence herbicidal activity against Ammannia multiflora at 100 g a.i/ha measured after 14 days; assay type: functional, organism-based
# Lindernia procumbens [10] = assay: Pre-emergence herbicidal activity against Lindernia procumbens at 100 g a.i/ha measured after 14 days; assay type: functional, organism-based
# [11] = test system: Schoenoplectiella juncoides; assay: Pre-emergence herbicidal activity against Schoenoplectiella juncoides at 100 g a.i/ha measured after 14 days; assay type: functional, organism-based
# Pontederia vaginalis [12] = assay: Pre-emergence herbicidal activity against Monochoria vaginalis at 100 g a.i/ha measured after 14 days; assay type: functional, organism-based
# Cyperus difformis [13] = assay: Pre-emergence herbicidal activity against Cyperus difformis at 100 g a.i/ha measured after 14 days; assay type: functional, organism-based
# Echinochloa oryzicola [14] = assay: Pre-emergence herbicidal activity against Echinochloa oryzicola at 100 g a.i/ha measured after 14 days; assay type: functional, organism-based
# Lindernia procumbens [15] = assay: Pre-emergence herbicidal activity against Lindernia procumbens assessed as bleaching of stem/leaf parts; assay type: functional, organism-based
# Pontederia vaginalis [16] = assay: Pre-emergence herbicidal activity against Monochoria vaginalis assessed as bleaching of stem/leaf parts; assay type: functional, organism-based
# [17] = test system: Schoenoplectiella juncoides; assay: Pre-emergence herbicidal activity against Schoenoplectiella juncoides assessed as bleaching of stem/leaf parts; assay type: functional, organism-based
# Cyperus difformis [18] = assay: Pre-emergence herbicidal activity against Cyperus difformis assessed as bleaching of stem/leaf parts; assay type: functional, organism-based
# Echinochloa oryzicola [19] = assay: Pre-emergence herbicidal activity against Echinochloa oryzicola assessed as bleaching of stem/leaf parts; assay type: functional, organism-based
# Cyperus difformis [20] = assay: Post-emergence herbicidal activity against Cyperus difformis assessed as bleaching of stem/leaf parts; assay type: functional, organism-based; also: test concentration or dose not given here
# Pontederia vaginalis [21] = assay: Post-emergence herbicidal activity against Monochoria vaginalis assessed as bleaching of stem/leaf parts; assay type: functional, organism-based
# Echinochloa oryzicola [22] = assay: Post-emergence herbicidal activity against Echinochloa oryzicola assessed as bleaching of stem/leaf parts; assay type: functional, organism-based
# Ammannia multiflora [23] = assay: Pre-emergence herbicidal activity against Ammannia multiflora assessed as bleaching of stem/leaf parts; assay type: functional, organism-based
# Elatine triandra [24] = assay: Pre-emergence herbicidal activity against Elatine triandra assessed as bleaching of stem/leaf parts; assay type: functional, organism-based
# Rotala indica [25] = assay: Pre-emergence herbicidal activity against Rotala indica assessed as bleaching of stem/leaf parts; assay type: functional, organism-based
# Ammannia multiflora [26] = assay: Pre-emergence herbicidal activity against Ammannia multiflora at 500 g a.i/ha measured after 14 days; assay type: functional, organism-based
# Elatine triandra [27] = assay: Pre-emergence herbicidal activity against Elatine triandra at 500 g a.i/ha measured after 14 days; assay type: functional, organism-based
# Oryza sativa [28] = assay: Phytotoxicity against Oryza sativa cv. Koshihikari (rice) at 500 g a.i/ha measured after 14 days; assay type: organism-based; conditions: in vivo, 336 h
# Rotala indica [29] = assay: Pre-emergence herbicidal activity against Rotala indica at 500 g a.i/ha measured after 14 days; assay type: functional, organism-based
# Lindernia procumbens [30] = assay: Pre-emergence herbicidal activity against Lindernia procumbens at 500 g a.i/ha measured after 14 days; assay type: functional, organism-based
# [31] = test system: Schoenoplectiella juncoides; assay: Pre-emergence herbicidal activity against Schoenoplectiella juncoides at 500 g a.i/ha measured after 14 days; assay type: functional, organism-based
# Pontederia vaginalis [32] = assay: Pre-emergence herbicidal activity against Monochoria vaginalis at 500 g a.i/ha measured after 14 days; assay type: functional, organism-based
# Cyperus difformis [33] = assay: Pre-emergence herbicidal activity against Cyperus difformis at 500 g a.i/ha measured after 14 days; assay type: functional, organism-based
# Echinochloa oryzicola [34] = assay: Pre-emergence herbicidal activity against Echinochloa oryzicola at 500 g a.i/ha measured after 14 days; assay type: functional, organism-based
SMILES,Activity (Elatine triandra [1]),Activity (Ammannia multiflora [2]),Activity (Rotala indica [3]),Activity (Lindernia procumbens [4]),Activity [5],Activity (Elatine triandra [6]),Activity (Rotala indica [7]),Activity (Oryza sativa [8]),Activity (Ammannia multiflora [9]),Activity (Lindernia procumbens [10]),Activity [11],Activity (Pontederia vaginalis [12]),Activity (Echinochloa oryzicola [14]),Activity (Lindernia procumbens [15]),Activity (Pontederia vaginalis [16]),Activity [17],Activity (Cyperus difformis [18]),Activity (Echinochloa oryzicola [19]),Activity (Cyperus difformis [20]),Activity (Pontederia vaginalis [21]),further results
Cn1cc(C(=O)Nc2ccc(C(C)(C)C)cc2)c(Oc2cccc(C(F)(F)F)c2)n1,Active,Active,Active,Active,Active,inactive,inactive,Non-toxic,inactive,inactive,inactive,inactive,inactive,Active,Active,Active,Active,Active,Active,Active,Activity (Cyperus difformis [13]): inactive; Activity (Echinochloa oryzicola [22]): Active; Activity (Ammannia multiflora [23]): Active; Activity (Elatine triandra [24]): Active; Activity (Rotala indica [25]): Active
COc1ccc(NC(=O)c2cn(C)nc2Oc2cccc(C(F)(F)F)c2)cc1OC,Active,Active,Active,Active,Active,inactive,inactive,Non-toxic,inactive,inactive,inactive,inactive,inactive,Active,Active,Active,Active,Active,Active,Active,Activity (Cyperus difformis [13]): inactive; Activity (Echinochloa oryzicola [22]): Active; Activity (Ammannia multiflora [23]): Active; Activity (Elatine triandra [24]): Active; Activity (Rotala indica [25]): Active
Cn1cc(C(=O)Nc2ccccc2)c(OCc2cccc(C(F)(F)F)c2)n1,Active,Active,Active,Active,Active,Active,Active,Non-toxic,Active,Active,inactive,inactive,Active,Active,Active,Active,Active,Active,Active,Active,Activity (Cyperus difformis [13]): inactive; Activity (Echinochloa oryzicola [22]): Active; Activity (Ammannia multiflora [23]): Active; Activity (Elatine triandra [24]): Active; Activity (Rotala indica [25]): Active
CCCONC(=O)c1cn(C)nc1Oc1cccc(C(F)(F)F)c1,Active,Active,Active,Active,Active,Active,Active,Non-toxic,Active,Active,Active,Active,Active,Active,Active,Active,Active,Active,Active,Active,Activity (Ammannia multiflora [26]): Active; Activity (Elatine triandra [27]): Active; Activity (Oryza sativa [28]): Toxic; Activity (Rotala indica [29]): Active; Activity (Lindernia procumbens [30]): Active; Activity [31]: Active; Activity (Pontederia vaginalis [32]): Active; Activity (Cyperus difformis [33]): Active; Activity (Echinochloa oryzicola [34]): Active; Activity (Echinochloa oryzicola [22]): Active; Activity (Ammannia multiflora [23]): Active; Activity (Elatine triandra [24]): Active; Activity (Rotala indica [25]): Active
